Source: PMC9637222, “Autoinducer-2 and bile salts induce c-di-GMP synthesis to repress the T3SS via a T3SS chaperone” (Nature Communications, 2022)
Where “and” joins values, the source holds several entries; their conditions need not be identical. Equal values may be shown once. Read-outs that look alike come from different tables or passages of the source.

Experiments:
SicA Q34A = molecular target: T1, SicA Q34A (Salmonella typhimurium, UniProt P69066, Q34A); format: binding, S. Typhimurium
T1 construct: His6 (N, cleaved yes); made in house; host or cells: E. coli BL21(DE3), pET-28a (pET28a-sicAQ34A)
T1 sequence (P69066 whole entry Q34A): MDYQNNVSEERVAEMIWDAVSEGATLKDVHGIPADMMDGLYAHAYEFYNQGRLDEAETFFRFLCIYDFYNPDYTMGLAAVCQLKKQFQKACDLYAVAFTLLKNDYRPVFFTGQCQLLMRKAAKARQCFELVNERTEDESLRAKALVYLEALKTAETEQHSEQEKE

SicA = molecular target: T2, SicA (Salmonella typhimurium, UniProt P69066); assay: ITC: nucleotide (c-di-GMP, c-di-AMP, cGMP) binding to SicA; parameters: species or system S. Typhimurium
T2 construct: His6 (N, cleaved yes); made in house; host or cells: E. coli BL21(DE3), pET-28a (pET28a-sicA)
T2 sequence (P69066 whole entry): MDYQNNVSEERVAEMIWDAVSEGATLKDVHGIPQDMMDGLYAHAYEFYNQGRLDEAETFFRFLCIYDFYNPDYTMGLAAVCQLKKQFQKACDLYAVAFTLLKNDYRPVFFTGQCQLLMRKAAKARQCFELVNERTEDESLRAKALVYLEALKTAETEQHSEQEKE

SicA D28A = molecular target: T3, SicA D28A (Salmonella typhimurium, UniProt P69066, D28A); format: binding, S. Typhimurium
T3 construct: His6 (N, cleaved yes); made in house; host or cells: E. coli BL21(DE3), pET-28a (pET28a-sicAD28A)
T3 sequence (P69066 whole entry D28A): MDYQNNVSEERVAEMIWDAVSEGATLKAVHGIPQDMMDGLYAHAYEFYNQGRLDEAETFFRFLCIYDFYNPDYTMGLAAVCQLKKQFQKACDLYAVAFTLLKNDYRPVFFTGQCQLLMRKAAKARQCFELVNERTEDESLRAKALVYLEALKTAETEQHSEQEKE

PcrH (WP_003113548) = PcrH (WP_003113548) (Pseudomonas aeruginosa, UniProt Q9I325); format: binding; details: for Kd: ITC
Chain of PcrH (WP_003113548) (Q9I325 1-167): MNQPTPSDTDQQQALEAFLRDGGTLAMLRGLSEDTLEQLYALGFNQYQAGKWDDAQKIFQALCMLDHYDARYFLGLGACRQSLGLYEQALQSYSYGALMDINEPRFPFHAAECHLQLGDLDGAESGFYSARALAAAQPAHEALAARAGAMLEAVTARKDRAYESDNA

[1] = individual experiments, source data Fig. 5a

In the case of `Nc1nc2c(ncn2C2OC3COP(=O)(O)OC4C(COP(=O)(O)OC3C2O)OC(n2cnc3c(=O)[nH]c(N)nc32)C4O)c(=O)[nH]1` (stereo not shown) [c-di-GMP, Cyclic di-GMP], the “n, c-di-GMP binding to SicAQ34A” value (SicA Q34A; ITC binding stoichiometry n, individual replicates, Supplementary Figure 17c) is reported as 1.05 and 1.09, the Kd (SicA Q34A; binding to SicA Q34A) is reported as 15 µM and 12 µM and 14 µM and the Kd (SicA; c-di-GMP : SicA WT, mean ± s.d. of three independent experiments) is reported as 210 ± 90 nM. For the same molecule, the Kd (SicA; [1]) was 320 nM and 100 nM, the “n (complex stoichiometry)” value (SicA; [1]) was 1.14 and 1.11 and 1.21 and the “n, c-di-GMP binding to SicAD28A” value (SicA D28A; ITC binding stoichiometry n, individual replicates, Supplementary Figure 17b) was 1.08 and 1.02 and 0.98. The Kd (SicA D28A; binding to SicA D28A) was 21 µM and 26 µM and 20 µM, the “n, c-di-GMP binding to PcrH” value (PcrH (WP_003113548); ITC binding stoichiometry n, individual replicates, Supplementary Figure 22a) was 1.15 and 1.14 and 1.18 and the Kd (PcrH (WP_003113548); individual replicates, Supplementary Figure 22a, read-out: Kd, c-di-GMP binding to PcrH) was 130 nM and 190 nM. For the same molecule, the Kd (PcrH (WP_003113548); range given for all 6 chaperones (PcrH, IpgC, SycD, CesD, BicA, VcrH), read-out: Kd) was 150 to 220 nM.
